According to US20180201592A1, “2-AMINO-1,3,4-THIADIAZINE AND 2-AMINO-1,3,4-OXADIAZINE BASED ANTIFUNGAL AGENTS” (F2G Limited, priority 2015, published 2018):

Experiments:
Conditions in all cases: banded MIC grade
Aspergillus niger = assay: Minimum inhibitory concentration, YAG medium; assay type: cell-based
Summary of the method: (§1)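 MIC values (mg/L) were derived from well optical density at 485 nm. Plates with Aspergillus spores and doubling aqueous dilutions of compound (5 mg/mL DMSO stock) had been incubated at 35° C for 24 hrs.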

Aspergillus flavus = assay: Minimum inhibitory concentration, YAG medium; assay type: cell-based
Summary of the method: as §1

Aspergillus terreus = assay: Minimum inhibitory concentration, YAG medium; assay type: cell-based
Summary of the method: as §1

A. fumigatus 210 [1] = assay: Minimum inhibitory concentration, RPMI medium; assay type: cell-based
Summary of the method: (§2)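 Compound doubling dilutions were prepared from 5 mg/mL DMSO stock; fungus was diluted in RPMI 1640 with 2% glucose and 0.135 M MOPS (pH 7.0), giving inocula of 1-2×10^4 cfu/mL and drug range 50-0.05 mg/L. Plates ran 24-48 hrs at 35° C; MIC is the lowest concentration giving >80% growth inhibition by OD485 versus drug-free control.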

A. fumigatus = assay: Minimum inhibitory concentration, RPMI medium; assay type: cell-based
Summary of the method: as §2

A. terreus 49 [2] = assay: Minimum inhibitory concentration, YAG medium; assay type: cell-based, Aspergillus terreus
Summary of the method: as §1

Aspergillus fumigatus = assay: Minimum inhibitory concentration, YAG medium; assay type: cell-based
Summary of the method: (§3)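 MIC, in mg/L, defined as the lowest drug level inhibiting growth by >70% relative to drug-free wells, judged by OD 485 nm after 24 hrs at 35° C. Spores (1-2×10^4 cfu/mL) were grown in YAG medium against doubling dilutions, usually 50-0.05 mg/L, repeated at 0.5-0.0005 mg/L where needed.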

A. terreus 49 [3] = assay: Minimum inhibitory concentration, RPMI medium; assay type: cell-based
Summary of the method: (§4)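 Thawed 5 mg/mL DMSO stocks are vortexed, diluted into sterile water and serially halved in water. The MIC test is then run in RPMI 1640 at 35° C for 24-48 hrs. Wells are read at OD 485 nm.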

C. albicans = assay: Minimum inhibitory concentration, RPMI medium; assay type: cell-based
Summary of the method: as §4

A. terreus = assay: Minimum inhibitory concentration, RPMI medium; assay type: cell-based
Summary of the method: as §4

C. tropicalis = assay: Minimum inhibitory concentration, RPMI medium; assay type: cell-based
Summary of the method: as §4

A. niger = assay: Minimum inhibitory concentration, RPMI medium; assay type: cell-based
Summary of the method: as §4

C. krusei = assay: Minimum inhibitory concentration, RPMI medium; assay type: cell-based
Summary of the method: as §4

A. flavus = assay: Minimum inhibitory concentration, RPMI medium; assay type: cell-based
Summary of the method: as §4

C. glabrata = assay: Minimum inhibitory concentration, RPMI medium; assay type: cell-based
Summary of the method: as §4

C. parapsilosis = assay: Minimum inhibitory concentration, RPMI medium; assay type: cell-based
Summary of the method: as §4

A. fumigatus 210 [4] = assay: Minimum inhibitory concentration, YAG medium; assay type: cell-based, Aspergillus fumigatus
Summary of the method: as §3

Structure (SMILES) | MIC grade, A. NIGER, YAG media (Aspergillus niger) | MIC grade, A. FLAVUS, YAG media (Aspergillus flavus) | MIC grade, A. TERREUS, YAG media (Aspergillus terreus) | MIC grade, A. FUMIGATUS 210, RPMI media (A. fumigatus 210 [1]) | MIC grade, A. FUMIGATUS, RPMI media (A. fumigatus) | MIC grade, A. TERREUS 49, YAG media (A. terreus 49 [2]) | MIC grade, A. FUMIGATUS, YAG media (Aspergillus fumigatus) | MIC grade, A. TERREUS 49, RPMI media (A. terreus 49 [3]) | MIC grade, C. ALBICANS, RPMI media (C. albicans) | MIC grade, A. TERREUS, RPMI media (A. terreus) | MIC grade, C. TROPICALIS, RPMI media (C. tropicalis) | MIC grade, A. NIGER, RPMI media (A. niger) | MIC grade, C. KRUSEI, RPMI media (C. krusei) | MIC grade, A. FLAVUS, RPMI media (A. flavus) | MIC grade, C. GLABRATA, RPMI media (C. glabrata) | MIC grade, C. PARAPSILOSIS, RPMI media (C. parapsilosis) | MIC grade, A. FUMIGATUS 210, YAG media (A. fumigatus 210 [4])
NC1=NN=C(CCCCOCc2ccc(Cl)cc2Cl)CS1 | 3 (3: 0.2-1 mg/L) | 2 (2: 1-5 mg/L) | 2 (2: 1-5 mg/L) | 1 (1: ≥20 mg/L) | 1 (1: ≥20 mg/L) | 2 (2: 1-5 mg/L) | 2 (2: 1-5 mg/L) | 2 (2: 5-20 mg/L) | 2 (2: 5-20 mg/L) | 2 (2: 5-20 mg/L) | 2 (2: 5-20 mg/L) | 1 (1: ≥20 mg/L) | 2 (2: 5-20 mg/L) | 2 (2: 5-20 mg/L) | 1 (1: ≥20 mg/L) | 2 (2: 5-20 mg/L) | 2 (2: 1-5 mg/L)
NC1=NN=C(CCCCOCCc2ccccc2)CS1 | 3 (3: 0.2-1 mg/L) | 4 (4: <0.2 mg/L) | 3 (3: 0.2-1 mg/L) | 1 (1: ≥20 mg/L) | 2 (2: 5-20 mg/L) | 3 (3: 0.2-1 mg/L) | 3 (3: 0.2-1 mg/L) | 2 (2: 5-20 mg/L) | 3 (3: 1-5 mg/L) | 2 (2: 5-20 mg/L) | 3 (3: 1-5 mg/L) | 2 (2: 5-20 mg/L) | 3 (3: 1-5 mg/L) | 3 (3: 1-5 mg/L) | 2 (2: 5-20 mg/L) | 3 (3: 1-5 mg/L) | 3 (3: 0.2-1 mg/L)
NC1=NN=C(CCCCOCc2c(F)cccc2Cl)CS1 | 3 (3: 0.2-1 mg/L) | 3 (3: 0.2-1 mg/L) | 3 (3: 0.2-1 mg/L) | 1 (1: ≥20 mg/L) | 2 (2: 5-20 mg/L) | 3 (3: 0.2-1 mg/L) | 3 (3: 0.2-1 mg/L) | 2 (2: 5-20 mg/L) | 2 (2: 5-20 mg/L) | 2 (2: 5-20 mg/L) | 2 (2: 5-20 mg/L) | 2 (2: 5-20 mg/L) | 3 (3: 1-5 mg/L) | 2 (2: 5-20 mg/L) | 2 (2: 5-20 mg/L) | 2 (2: 5-20 mg/L) | 3 (3: 0.2-1 mg/L)
Cc1cccc(COCCCCC2=NN=C(N)SC2)c1 | 3 (3: 0.2-1 mg/L) | 3 (3: 0.2-1 mg/L) | 3 (3: 0.2-1 mg/L) | 2 (2: 5-20 mg/L) | 3 (3: 1-5 mg/L) | 3 (3: 0.2-1 mg/L) | 3 (3: 0.2-1 mg/L) | 2 (2: 5-20 mg/L) | 3 (3: 1-5 mg/L) | 2 (2: 5-20 mg/L) | 3 (3: 1-5 mg/L) | 2 (2: 5-20 mg/L) | 3 (3: 1-5 mg/L) | 3 (3: 1-5 mg/L) | 2 (2: 5-20 mg/L) | 3 (3: 1-5 mg/L) | 3 (3: 0.2-1 mg/L)
